Our source for the DPP4 inhibitory activity, anticancer activities and IC50 values is patent US11655235B2, “Pyrrolidine and piperidine compounds” (YUHAN CORPORATION, priority 2019, dated 2023).

Broadly, the IC50 is the concentration that gives 50% inhibition.

Bounds are passed on as bounds.

Assay [1] concerns the target T1, DPP4 (Homo sapiens, UniProt P27487). The settings on record: cited from earlier work.
Target sequence in this assay (P27487 whole entry, species assumed): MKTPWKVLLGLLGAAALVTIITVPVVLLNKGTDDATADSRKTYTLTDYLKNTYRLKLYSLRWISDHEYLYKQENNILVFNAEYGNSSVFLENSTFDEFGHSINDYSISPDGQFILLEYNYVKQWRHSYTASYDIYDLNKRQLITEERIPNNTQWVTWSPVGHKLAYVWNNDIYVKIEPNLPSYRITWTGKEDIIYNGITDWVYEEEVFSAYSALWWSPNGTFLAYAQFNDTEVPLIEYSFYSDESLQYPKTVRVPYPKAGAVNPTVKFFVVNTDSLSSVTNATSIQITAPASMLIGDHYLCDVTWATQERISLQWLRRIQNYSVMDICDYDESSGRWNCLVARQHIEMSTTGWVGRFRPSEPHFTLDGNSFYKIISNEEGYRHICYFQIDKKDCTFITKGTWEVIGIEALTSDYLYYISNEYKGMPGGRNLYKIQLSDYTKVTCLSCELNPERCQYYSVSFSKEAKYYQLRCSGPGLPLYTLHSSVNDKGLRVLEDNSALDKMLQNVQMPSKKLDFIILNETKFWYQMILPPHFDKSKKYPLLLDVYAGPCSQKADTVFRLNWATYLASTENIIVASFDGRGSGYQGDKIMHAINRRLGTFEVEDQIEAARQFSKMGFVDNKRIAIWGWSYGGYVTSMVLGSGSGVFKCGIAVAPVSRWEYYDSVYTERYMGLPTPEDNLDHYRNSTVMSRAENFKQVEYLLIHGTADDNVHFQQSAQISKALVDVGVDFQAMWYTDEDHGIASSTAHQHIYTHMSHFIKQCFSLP
A further assay concerns tumors. Conditions: orally administered, mice; cited from earlier work.
The next assay concerns the target T2, recombinant human DPP9 (Homo sapiens, UniProt Q86TI2).
T2 construct: purchased R&D Systems
Kind of assay: DPP9 inhibition, fluorogenic substrate H-Gly-Pro-AMC. The class given is biochemical. The settings on record: recombinant human DPP9. A digest of the protocol:
(§1)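 Inhibitors are titrated in an 8-point series into the enzyme's assay buffer (DMSO no more than 0.5%). Substrate cleavage at 25 °C is followed by fluorescence, excitation 380 nm and emission 460 nm. IC50 values come from a four-variable logistic model.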

In the next assay the target is T3, recombinant human PREP (Homo sapiens, UniProt P48147).
T3 construct: purchased R&D System
T3 sequence (P48147 1-710): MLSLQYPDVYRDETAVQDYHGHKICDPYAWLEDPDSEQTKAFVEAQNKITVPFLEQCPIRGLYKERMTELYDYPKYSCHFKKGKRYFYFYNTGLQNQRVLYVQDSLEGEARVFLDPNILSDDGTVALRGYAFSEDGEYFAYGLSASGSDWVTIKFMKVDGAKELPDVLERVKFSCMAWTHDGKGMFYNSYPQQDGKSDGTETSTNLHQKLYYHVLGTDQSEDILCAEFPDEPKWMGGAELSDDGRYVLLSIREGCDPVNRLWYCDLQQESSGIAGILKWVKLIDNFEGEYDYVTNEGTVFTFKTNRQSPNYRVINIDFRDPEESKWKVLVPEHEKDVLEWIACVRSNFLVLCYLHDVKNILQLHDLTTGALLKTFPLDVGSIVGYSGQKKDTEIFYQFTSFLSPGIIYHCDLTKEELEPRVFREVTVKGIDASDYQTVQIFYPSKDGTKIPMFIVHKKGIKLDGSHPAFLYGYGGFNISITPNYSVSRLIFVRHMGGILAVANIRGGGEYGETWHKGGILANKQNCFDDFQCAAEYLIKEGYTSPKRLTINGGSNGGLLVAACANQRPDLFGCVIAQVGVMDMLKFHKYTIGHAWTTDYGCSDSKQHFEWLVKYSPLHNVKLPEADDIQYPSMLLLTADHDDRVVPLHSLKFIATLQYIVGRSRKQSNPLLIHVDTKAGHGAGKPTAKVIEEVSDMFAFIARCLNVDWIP
Kind of assay: PREP inhibition, fluorogenic substrate Z-Gly-Pro-AMC. The class given is biochemical. The settings on record: Inhibitory Activity (IC50, nM) PREP, recombinant human PREP. A digest of the protocol: as §1

The target in a further assay is T4, Recombinant human FAP (Homo sapiens, UniProt Q12884).
T4 construct: purchased R&D systems
T4 sequence (Q12884 1-760): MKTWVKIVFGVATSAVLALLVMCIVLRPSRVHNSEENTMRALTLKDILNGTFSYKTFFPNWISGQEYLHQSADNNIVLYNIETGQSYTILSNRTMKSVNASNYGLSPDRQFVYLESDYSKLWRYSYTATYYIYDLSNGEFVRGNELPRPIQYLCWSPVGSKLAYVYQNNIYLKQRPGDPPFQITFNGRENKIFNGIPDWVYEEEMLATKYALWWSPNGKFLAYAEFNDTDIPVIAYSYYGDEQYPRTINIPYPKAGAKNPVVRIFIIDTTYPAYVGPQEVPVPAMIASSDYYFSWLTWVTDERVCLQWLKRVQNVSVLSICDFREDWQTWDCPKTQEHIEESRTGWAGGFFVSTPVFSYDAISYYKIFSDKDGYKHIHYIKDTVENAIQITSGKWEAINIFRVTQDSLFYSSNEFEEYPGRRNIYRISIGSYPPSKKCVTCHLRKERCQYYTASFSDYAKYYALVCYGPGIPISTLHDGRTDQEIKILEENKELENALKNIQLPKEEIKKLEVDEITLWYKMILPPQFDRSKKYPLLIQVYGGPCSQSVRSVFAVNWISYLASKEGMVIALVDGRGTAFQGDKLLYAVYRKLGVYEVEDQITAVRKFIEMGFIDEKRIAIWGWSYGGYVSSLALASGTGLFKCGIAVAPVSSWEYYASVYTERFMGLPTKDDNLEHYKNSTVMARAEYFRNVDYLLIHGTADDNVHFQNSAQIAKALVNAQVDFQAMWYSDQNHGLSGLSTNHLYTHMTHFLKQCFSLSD
The assay is described as follows: FAP FRET assay, FGF21-sequence FRET peptide substrate. The assay is classed as biochemical. The settings on record: FRET peptide with human FGF21 sequence, 6 μM, 37° C. A digest of the protocol: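 FRET peptide bearing human FGF21 sequence (6 μM final) cleaved by 10 ng recombinant human FAP at 37° C in HEPES pH 7.2 buffer with NaCl, BSA and EDTA, DMSO up to 0.1%. Signal-rate decrease versus uninhibited control fitted to a four-variable logistic model for IC50.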

For a further assay, the target named is T5, recombinant human DPP8 (Homo sapiens, UniProt Q6V1X1).
T5 construct: purchased PBS Bioscience
T5 sequence (Q6V1X1 whole entry): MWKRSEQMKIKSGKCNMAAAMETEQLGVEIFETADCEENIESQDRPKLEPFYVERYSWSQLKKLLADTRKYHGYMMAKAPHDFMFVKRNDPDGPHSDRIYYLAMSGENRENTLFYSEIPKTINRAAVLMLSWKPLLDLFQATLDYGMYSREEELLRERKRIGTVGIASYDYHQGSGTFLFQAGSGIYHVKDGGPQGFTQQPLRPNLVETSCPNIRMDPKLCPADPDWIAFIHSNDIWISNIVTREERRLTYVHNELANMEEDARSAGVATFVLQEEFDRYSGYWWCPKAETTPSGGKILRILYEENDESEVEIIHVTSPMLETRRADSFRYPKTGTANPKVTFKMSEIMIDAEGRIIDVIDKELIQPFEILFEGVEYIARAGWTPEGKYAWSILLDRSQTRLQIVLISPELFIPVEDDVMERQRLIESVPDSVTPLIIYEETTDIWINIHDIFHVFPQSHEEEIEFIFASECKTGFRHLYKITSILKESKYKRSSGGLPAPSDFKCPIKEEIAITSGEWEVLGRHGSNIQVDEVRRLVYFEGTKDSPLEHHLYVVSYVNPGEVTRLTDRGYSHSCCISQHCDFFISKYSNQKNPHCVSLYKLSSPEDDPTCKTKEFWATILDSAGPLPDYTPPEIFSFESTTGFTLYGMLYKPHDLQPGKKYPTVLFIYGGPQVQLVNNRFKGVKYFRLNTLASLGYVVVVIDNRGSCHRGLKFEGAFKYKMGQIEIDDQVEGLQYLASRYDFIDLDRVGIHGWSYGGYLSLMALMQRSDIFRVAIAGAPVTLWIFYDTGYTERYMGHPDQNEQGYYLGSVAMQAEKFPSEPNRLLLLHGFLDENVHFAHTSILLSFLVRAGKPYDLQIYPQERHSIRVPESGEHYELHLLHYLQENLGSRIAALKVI
Kind of assay: DPP8 inhibition, fluorogenic substrate Z-Ala-Pro-AMC. The assay is classed as biochemical. The settings on record: recombinant human DPP8. The gist of the method: as §1

The target of assay [2] is T1, DPP4. The assay is described as follows: DPP4 inhibition, fluorogenic substrate H-Gly-Pro-AMC. Conditions: recombinant human DPP4. On the set-up: purchased R&D Systems. The class given is biochemical.
Target sequence in this assay (P27487 whole entry): as the sequence (P27487 whole entry, species assumed) above
The target of another assay is T6, recombinant human DPP7 (Homo sapiens, UniProt Q9UHL4).
T6 construct: purchased R&D Systems
Kind of assay: DPP7 inhibition, fluorogenic substrate Lys-Pro-AMC. The assay is classed as biochemical. The settings on record: recombinant human DPP7. The gist of the method: as §1

T2 sequence (Q86TI2 whole entry): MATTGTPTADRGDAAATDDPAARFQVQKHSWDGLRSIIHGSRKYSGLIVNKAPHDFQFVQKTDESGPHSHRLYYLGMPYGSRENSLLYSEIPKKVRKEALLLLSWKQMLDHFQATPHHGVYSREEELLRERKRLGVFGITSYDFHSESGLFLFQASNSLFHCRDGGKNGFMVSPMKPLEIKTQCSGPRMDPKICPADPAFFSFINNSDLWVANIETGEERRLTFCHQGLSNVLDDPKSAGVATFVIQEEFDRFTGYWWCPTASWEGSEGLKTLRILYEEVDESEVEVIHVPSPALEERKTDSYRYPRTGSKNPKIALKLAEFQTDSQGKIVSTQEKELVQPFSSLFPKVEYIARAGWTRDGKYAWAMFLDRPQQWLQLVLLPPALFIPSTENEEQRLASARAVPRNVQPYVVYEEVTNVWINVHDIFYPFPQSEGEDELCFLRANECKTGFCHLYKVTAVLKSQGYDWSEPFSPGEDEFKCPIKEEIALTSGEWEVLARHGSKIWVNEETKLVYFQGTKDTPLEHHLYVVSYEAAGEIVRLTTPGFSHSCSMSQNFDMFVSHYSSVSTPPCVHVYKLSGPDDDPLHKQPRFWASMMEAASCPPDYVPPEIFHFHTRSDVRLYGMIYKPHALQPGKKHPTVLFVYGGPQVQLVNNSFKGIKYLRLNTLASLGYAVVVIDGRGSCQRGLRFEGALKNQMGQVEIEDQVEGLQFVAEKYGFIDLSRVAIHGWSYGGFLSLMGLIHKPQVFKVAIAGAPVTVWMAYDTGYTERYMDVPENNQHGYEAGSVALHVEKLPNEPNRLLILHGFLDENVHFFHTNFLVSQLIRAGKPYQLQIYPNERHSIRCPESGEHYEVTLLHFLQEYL

`CC(C)[C@H](N)C(=O)N1CCC[C@H]1B(O)O` [Val-boroPro, Talabostat]: on DPP4 [1], the DPP4 inhibitory activity result is listed as “inhibitory activity”.

Consider `CC(C)[C@H](N)C(=O)N1CCC[C@H]1B(O)O` [ValboroPro, Val-boroPro], for which, in the assay on tumors, the anticancer activities entry is “exhibits anticancer activities in mice by delaying the proliferation of tumors and inducing the degeneration of tumors”.

On to `N#C[C@@H]1C[C@H](F)CN1C(=O)CN1CCC(Nc2ccc(C(=O)Nc3ccncc3)c3ncccc23)CC1` [Example 406, 5-[[1-[2-oxo-2-[(2S,4S)-2-cyano-4-fluoro-pyrrolidin-1-yl]ethyl]-4-piperidyl]amino]-N-(4-pyridyl)quinoline-8-carboxamide], for which the IC50 on recombinant human DPP9 stood at 218 nM; at recombinant human PREP it was 535 nM; at Recombinant human FAP, 4.2 nM; at recombinant human DPP8, 23.3 nM; on DPP4 [2], 2700 nM; on recombinant human DPP7, 402 nM.

`CN(c1cccc2ncc(F)cc12)[C@H]1CCN(CC(=O)N2C[C@@H](F)C[C@H]2C#N)C1` [Example 156, (2S,4S)-4-fluoro-1-(2-((S)-3-((3-fluoroquinolin-5-yl)(methyl)amino)pyrrolidin-1-yl)acetyl)pyrrolidine-2-carbonitrile]: the IC50 worked out at 6790 nM on recombinant human DPP9; 1020 nM at recombinant human PREP; 2.7 nM at Recombinant human FAP; 12000 nM at recombinant human DPP8; 736 nM at DPP4 [2]; 5060 nM at recombinant human DPP7.

Take `Cc1cc(OC2CCN(CC(=O)N3C[C@@H](F)C[C@H]3C#N)CC2)c2ccccc2n1` [Example 436, (2S,4S)-4-fluoro-1-[2-[4-[(2-methyl-4-quinolyl)oxy]-1-piperidyl]acetyl]pyrrolidine-2-carbonitrile]: the IC50 at recombinant human DPP9 turned out to be 18200 nM; at recombinant human PREP, 555 nM; at Recombinant human FAP, 11.1 nM; on recombinant human DPP8, 11700 nM; at DPP4 [2], 9040 nM; at recombinant human DPP7, 8500 nM.

Turning to `N#C[C@@H]1C[C@H](F)CN1C(=O)CN1CCC(Nc2ccc(C(=O)Nc3ccccn3)c3ncccc23)CC1` [Example 404, 5-[[1-[2-oxo-2-[(2S,4S)-2-cyano-4-fluoro-pyrrolidin-1-yl]ethyl]-4-piperidyl]amino]-N-(2-pyridyl)quinoline-8-carboxamide], the IC50 on recombinant human DPP9 was determined as 682 nM; at recombinant human PREP, 78.3 nM; on Recombinant human FAP, 1.8 nM; at recombinant human DPP8, 596 nM; at DPP4 [2], 4730 nM; on recombinant human DPP7 it was 634 nM.

Take `N#C[C@@H]1CCCN1C(=O)CN1CCC(Oc2ccnc3ccc(F)cc23)CC1` [Example 427, (2S)-1-[2-[4-[(6-fluoro-4-quinolyl)oxy]-1-piperidyl]acetyl]pyrrolidine-2-carbonitrile]: the IC50 was at least 100000 nM at recombinant human DPP9; 5010 nM at recombinant human PREP; 5.6 nM on Recombinant human FAP; 36600 nM on recombinant human DPP8; 37200 nM at DPP4 [2]; 15800 nM at recombinant human DPP7.
